# Test results from patent US6046224A, “12 (S)--hete receptor blockers” (City of Hope, priority 1998, dated 2000).
# “And” between values parts separate entries of the source, which are not always exact repeats. Equal entries are not always repeated. “Also recorded” adds a separate entry of the source. Structures can show the parent of a compound that is named as a salt. Where two headings read alike, the source gives them in different places.
# Columns and labels:
# [1] = system: Human Aortic Endothelial Cells; test: Monocyte adhesion to human aortic endothelial cells, monocytes treated with 12(S)-HETE; format: cell-based; conditions: monocytes with 10^-9 M 12(S)-HETE, 12 minutes
# Experimental: Neutrophil binding is not increased. […] See Example 10.
# Monocytes were incubated with 10^-9 M 12(S)-HETE for 12 minutes at room temperature (RT) or 37° C. or left untreated at room temperature and assayed for monocytes adhesion. Eight fields were counted for each experiment.
# [2] = system: Human Aortic Endothelial Cells; test: Monocyte binding to human aortic endothelial cells, endothelial cells treated; format: cell-based
# From the text: Lipoxygenases (LO) are metabolic enzymes which catalyze the stereospecific oxygenation of polyunsaturated fatty acids to hydroperoxy fatty acids (Hamberg et al., J. Biol. Chem. 242:5329-5335 (1967)). The physiological function of 12-LO, the mammalian enzyme which catalyzes the oxygenation of arachidonic acid to (S)-12-hydroperoxyeicosatetraenoic acid (12-HPETE) and (S)-12-hydroxyeicosatetraenoic acid (12(S)-HETE), is unclear. 12-LO exists as two isoforms which are the products of different genes, leukocyte-type 12-LO and platelet-type 12-LO, which share 65% homology at the amino acid level (Izumi et al., Proc. Natl. Acad. Sci., USA 87:7477-7481 (1990); Funk et al., Proc. Natl. Acad. Sci. USA 87:5638-5642 (1990)). […] 12(S)-HETE has direct mitogenic and hypertrophic effects in vascular cells. […] In addition, glucose-induced monocyte adhesion was abrogated by the inhibition of 12-LO using both phenidone, a non-specific LO inhibitor, and baicalein, a more specific 12-LO inhibitor. The adhesion caused by 12-LO products appears to be monocyte-specific.
# CHO-AT1a cells [3] = test: Growth/mitogenesis of CHO-AT1a cells; format: cell-based, Chinese hamster
# Experimental: Partial blockade of 12(S)-HETE mitogensis by the specific angiotensin AT1a receptor antagonist, Losartan, in CHO-AT1a cells. (FIG. 5) CHO-AT1a cells were plated in 12-well dishes (about 5-10,000 cells per well) for 24 hr. in growth medium consisting of HAM's, F12+10% FCS. They were then serum depleted for 72 hours by replacing the medium with HAM's F12+0.1% BSA. This medium was then freshly replaced along with AII or 12-HETE (0.1 μM each) prior to addition of drug to the cells. Losartan was added as a solution in water to the cells 15 min. prior to the addition of AII or 12-HETE. Fresh medium containing the same concentrations of AII or 12(S)-HETE plus Losartan was replaced every 48 hours. At the end of 8 days, the medium was removed, and 1 ml trypsin was added per well followed by 1 ml isoton after 3 min. These trypsinized cells were counted on a Coulter counter. […] 12-HETE binding (FIG. 4).
# The three cell lines, CHO-AT1a, CHO-AT1b and mock transfected CHO cells were gifts from Dr. Eric Clauser (Inserm Unit, Paris, France). These cells were plated in 12 well dishes in HAM's F12 medium +10% FCS. After 72 hours serum depletion in HAM's F12+0.05% FCS, the cells were treated with AII or 12(S)-HETE (0.1 μM). Cells counts (after trypsinization) were taken at 48 hour intervals and fresh medium along with AII or 12-HETE added at these 48 hour intervals.
# [4] = system: 12(S)-HETE receptor (CHO-AT1a cells); test: [3H]12(S)-HETE binding to CHO-AT1a cells; parameters: species or system Chinese hamster; conditions: for blockade/displacement of [3H]12(S)-HETE binding: CHO-AT1a cells, 4° C.
# Experimental: Kinetics of [^3 H]12(S)-HETE binding to CHO-AT1a cells. FIGS. 1 and 2 are a competition curves which examine the specificity of [^3 H]12(S)-HETE binding. CHO-AT1a cells were grown to confluence in 24 well tissue culture dishes in HAM's F12 medium containing 10% fetal calf serum. The cells were then rinsed and placed in fresh medium, HAM's F12/HEPES with no other additives (450 µl per well). Serial dilutions of unlabeled 12(S)-HETE or DuP654 were added to the wells. Commercial unlabeled 12(S)-HETE (BioMol Corp.) was dried and reconstituted in ethanol to obtain a stock solution of 5 mM. DuP654 was dissolved in DMSO to get a stock solution of 5 mM. These were then serially diluted and added in a volume of 1 u1 to the wells to obtain the final concentrations indicated. Then [^3 H]12(S)-HETE (10,000 cpm in a volume of 50 µl per well) was added from a stock solution obtained by adding the tracer to the medium. The plates were then incubated at 4° C. with continuous shaking for 2 hr. The cells were then washed 2 times with cold PBS and lysed in 0.3N NaOH (200 u1). Radioactivity in the cell lysates was quantitated in scintillation counter. Affinities and binding constants were obtained using […] computer software (Mlab, Civilized Software Inc., Bethesda, Md.).
# Tritrated 12(S)-HETE binding is blocked by unlabeled 12(S)-HETE. DuP654, a 12(S)-HETE receptor antagonist, was shown also to block 12(S)-HETE at a concentration of 0.1 μM in both AT1a Σ and AT1a 27 cell types, two clones of CHO cells which overexpress the AII1a receptor. The cells were grown as described in Example 1.
# Blockade of 12(S)-HETE binding by pertussis toxin. Cells were grown as described in Example 1. Prior to addition of drug (12(S)-HETE or DuP654) to the cells, the cultures were preincubated in HAM's F12 medium +0.1% BSA for two hours at 37° C. with or without 100 ng/ml pertussis toxin. Serial dilutions of unlabeled 12(S)-HETE or DuP654 were added, followed by [^3 H]12(S)-HETE as described for Example 1. After incubation and washing, radioactivity in the cell lysates was quantitated. As discussed above, pertussis toxin could also ablate 12(S)-HETE-induced mitogenic effects. This implicates the involvement of a Gi -protein-coupled receptor.
# [5] = system: 12(S)-HETE receptors on the human epidermal cell line SCL-II; conditions: Arenberger et al. 1993; cited from earlier work
# PAK [6] = test: PAK activity in CHO-AT1a cells; format: cell-based, Chinese hamster; conditions: 10^-7 M 12(S)-HETE, 10 minutes
# Experimental: CHO-AT1a cells were gently washed and placed in depletion medium (HAM's F-12 medium containing 1 mg.backslash.ml BSA and 20 mM HEPES, ph 7.4) for 72 hours prior to use. After incubation for 30 minutes, the cells were treated with 10^-7 M 12(S)-HETE or with ethanol. The 12(S)-HETE treatment was terminated by washing twice with PBS and adding 300 μl lysis buffer (50 mM HEPES. pH 7.5, containing 150 mM NaCl, 5 mM MgCl2, 1 mM EGTA, 50 mM NaF, 10 mM sodium pyrophosphate, 1% NP-40, 2.5% glycerol and 1 mM Na3 VO4 containing the protease inhibitors phenylmethylsulfonyl fluoride, leupeptin, and aprotonin) followed by sedimentation at 14,000× g at 4° C. for ten minutes. Protein determination was performed by the Bradford method. […] PAK activity was measured as follows. […] ATP, the kinase activity was measured in 60 μl kinase buffer. […] Results are expressed as stimulation over control.
# For the PBD-transfected group, CHO-AT1a cells were transiently transfected with 15 μg PBD plasmid. […] The bottom panel illustrates the densitometric quantification. […] Results are expressed as stimulation over control. The PAK activity was measured as described in Example 7.
# Cells were pretreated with different concentrations of the PI-3 kinase inhibitor, LY294002 or DMSO (control) for 30 minutes, then treated with 10^-7 M 12(S)-HETE or ethanol (control) for 10 minutes. PAK activity was measured as described in Example 7.
# CHO-AT1a cells [7] = conditions: cited from earlier work; for inhibition of 12(S)-HETE-induced mitogenic effects (pertussis toxin): pretreatment of cells
# [8] = system: AII-induced proliferation; conditions: cited from earlier work
# 12-LO [9] = conditions: cited from earlier work
# [10] = system: c-jun amino terminal kinase (JNK); conditions: cited from earlier work
# PAK [11] = conditions: cited from earlier work
# 12-LO [12] = conditions: Scheidegger et al. 1997; cited from earlier work
# [13] = HAEC incubated four hours with 12(S)-HETE, 240 min
molecule,measurement,setting,value
"CCCCC/C=C\C[C@H](O)/C=C/C=C\C/C=C\CCCC(=O)O [12(S)-HETE, (S)-12-hydroxyeicosatetraenoic acid]","Monocyte Adhesion to Human Aortic Endothelial Cells, 12(S)-HETE (37° C.)","[1]; 37° C., P = 0.01",39.0 ± 9.3
same,"Monocyte Adhesion to Human Aortic Endothelial Cells, 12(S)-HETE (RT)","[1]; RT, exp. 1 P = 0.016, exp. 2 P = 0.001",39.6 ± 12.5 and 45.4 ± 7.6
same,average increase in monocyte binding as compared to untreated cells,[2]; [13],3 fold
same,range of increase in monocyte binding as compared to untreated cells,[2]; [13],1.5-5 fold
"Oc1c(Cc2ccccc2)ccc2ccccc12 [DuP654, 2-phenylmethyl-1-naphthol]",reduction of 12(S)-HETE-induced cell growth at 0.1 μM,"CHO-AT1a cells [3]; 12(S)-HETE-induced, 0.1 μM",significantly reduced
same,inhibition of 12(S)-HETE-induced mitogenic effects,"CHO-AT1a cells [3]; 12(S)-HETE-induced, CHO-AT1a cells",completely inhibit; also recorded: Complete inhibition
same,reduction of AII-induced cell growth at 0.1 μM,"CHO-AT1a cells [3]; AII-induced, 0.1 μM",significantly reduced
same,blockade of 12(S)-HETE binding at 0.1 μM,"[4]; 0.1 μM, AT1a Σ and AT1a 27 clones",block
same,inhibition of 12(S)-HETE binding to SCL-II cells,[5],specifically inhibit
O=c1cc(N2CCOCC2)oc2c(-c3ccccc3)cccc12 [LY294002],inhibition of 12(S)-HETE-induced PAK activation,PAK [6],inhibition
"CCCCc1nc(Cl)c(CO)n1Cc1ccc(-c2ccccc2-c2nn[nH]n2)cc1 [Losartan, 2-N-butyl-4-chloro-5-hydroxymethyl-1-[(2'-(1H-tetrazol-5-yl)biphenyl-4-yl)methyl]imidazole, potassium salt]",inhibition of 12(S)-HETE-induced mitogenic effects,"CHO-AT1a cells [3]; 12(S)-HETE-induced, CHO-AT1a cells, potassium salt",partially blocked
same,inhibition of AII-induced proliferative effects,"CHO-AT1a cells [3]; AII-induced, CHO-AT1a cells, potassium salt",fully inhibiting; also recorded: fully blocked
same,blockade/displacement of [3H]12(S)-HETE binding,[4]; potassium salt,partially blocked
O=c1cc(-c2ccccc2)oc2cc(O)c(O)c(O)c12 [baicalein],inhibition of AII proliferative effects,"CHO-AT1a cells [7]; AII-induced, CHO-AT1a cells",inhibited
same,inhibition of glucose-induced monocyte adhesion,[2],abrogated
same,inhibition of proliferative effects of AII,[8],inhibited
O=C1CCN(c2ccccc2)N1 [phenidone],inhibition of glucose-induced monocyte adhesion,[2],abrogated
AII: growth factor and potent vasoconstrictor AII,mitogenic effects in CHO-AT1a cells,CHO-AT1a cells [7]; Wen et al. 1996,sustained increase in DNA synthesis as well as cell number
same,stimulation of 12-LO activity in smooth muscle cells,12-LO [9],stimulate
same,JNK activation,[10]; Wen et al. 1997,activate
same,PAK activation by AII,PAK [11],activate
same,stimulation of 12-LO activity in murine macrophages,12-LO [12],stimulate
pertussis toxin,inhibition of 12(S)-HETE-induced mitogenic effects (pertussis toxin),CHO-AT1a cells [7],completely abrogated; also recorded: ablate
same,inhibition of 12(S)-HETE-induced mitogenic effects (pertussis toxin),CHO-AT1a cells [7]; listed as Pertussis toxin,ablate
same,blockade/displacement of [3H]12(S)-HETE binding,[4],Blockade
same,blockade/displacement of [3H]12(S)-HETE binding,[4]; listed as Pertussis toxin,blocked
same,blockade of JNK activation by 12(S)-HETE,[10]; 12(S)-HETE-induced,block
